What was measured:
Assay in all cases: Reverse Phase Protein Analysis (RPPA)
AN3Ca = type: cell-based; conditions: % change from DMSO (matched cell line)
Procedure: (§1) Control wells were treated with DMSO at 0.1% (v/v) for 6 hours prior to cell lysate generation. Samples were then analyzed using reverse-phase protein microarray technology (Theranostics Health).
(§2) Cell lines with common alterations in BRAF and RAS were assayed: BRAF^V600E mutant lines A375, Colo205, and HT29; KRAS^G12C-mutant cell line MIAPACa-2; KRAS^G13D-mutant cell line HCT116; and AN3Ca with atypical HRAS^F82L mutation. Changes in protein levels are shown as a percentage change from dimethyl sulfoxide (DMSO)-treated parental control (FIG. 32A and Table 23).

HT29 = type: cell-based; conditions: % change from DMSO (matched cell line)
Procedure: as §1, §2

MIAPaCa-2 = type: cell-based; conditions: MIAPaca2; % change from DMSO (matched cell line)
HCT116 = type: cell-based, human; conditions: % change from DMSO (matched cell line)
Procedure: as §1, §2

## CC(C)Nc1cc(-c2c[nH]c(C(=O)N[C@H](CO)c3cccc(Cl)c3)c2)c(Cl)cn1 [BVD-523]
AN3Ca
  Avg (4ebp1 T70): 32.17%
  Avg (Akt S473): 52.11%
  Avg (Akt): −22.43%
  Avg (Bad S136): −1.02%
  Avg (Bad S155): 0.66%
  Avg (Bak): 3.38%
  Avg (Bax): −10.47%
  Avg (Bcl 2): −16.83%
  Avg (Bcl2 S70): −14.81%
  Avg (Bcl 2 T56): −12.85%
  Avg (Bim): −12.57%
  Avg (CREB S133): 1.03%
  Avg (Caspase 3 CL D175): −10.8%
  Avg (Caspase 7 Cl D198): −12.35%
  Avg (Chk1): −8.45%
  Avg (Chk1 S345): −13.34%
  Avg (Cyclin D1): −0.69%
  Avg (ERK 1 2): −9.05%
  Avg (ERK 1 2 T202 Y204): 733.27%
  Avg (MAK1 S360): 0.49%
  Avg (Mcl1): −4.9%
  Avg (Raptor S792): −8.47%
  Avg (Raptor): −13.82%
  Avg (Rictor): −4.52%
  Avg (Stat1): −5.65%
  Avg (Stat3): −4.97%
  Avg (bad S112): −54.1%
  Avg (c Fos): −5.15%
  Avg (c Myc): −0.58%
  Avg (mTOR S2448): −10.79%
  Avg (mTOR S2481): 2.75%
  Avg (mTOR): 5.58%
  Avg (p70 S6 Kinase): −10.27%
  Avg (p90 RSK S380): −28.11%
  Avg(S6 Ribo Prot S235 236): −43.41%
  Avg(S6 Ribo Prot S240 244): −22.2%
  Avg(Tuberin TSC2 Y1571): 2.86%
  Avg(p70 S6 Kinase S371 S394): 32.26%
  Avg(p70 S6 Kinase T389 T412): −14.78%
HT29
  Avg (4ebp1 T70): −41.47%
  Avg (Akt S473): −3.06%
  Avg (Akt): −13.41%
  Avg (Bad S136): 10.73%
  Avg (Bad S155): −25.9%
  Avg (Bak): −1.42%
  Avg (Bax): 8.39%
  Avg (Bcl 2): 10.68%
  Avg (Bcl2 S70): 2.83%
  Avg (Bcl 2 T56): −8.18%
  Avg (Bim): 2.81%
  Avg (CREB S133): −3.46%
  Avg (Caspase 3 CL D175): −7.03%
  Avg (Caspase 7 Cl D198): −6.93%
  Avg (Chk1): 7.4%
  Avg (Chk1 S345): −13.48%
  Avg (Cyclin D1): −37.21%
  Avg (ERK 1 2): −44.3%
  Avg (ERK 1 2 T202 Y204): 54.82%
  Avg (MAK1 S360): 1.49%
  Avg (Mcl1): −2.83%
  Avg (Raptor S792): −10.48%
  Avg (Raptor): −8.53%
  Avg (Rictor): −18.76%
  Avg (Stat1): 4.74%
  Avg (Stat3): −6.46%
  Avg (bad S112): −20.66%
  Avg (c Fos): −13.48%
  Avg (c Myc): 17.85%
  Avg (mTOR S2448): −20.68%
  Avg (mTOR S2481): −8.64%
  Avg (mTOR): 5.02%
  Avg (p70 S6 Kinase): −10.64%
  Avg (p90 RSK S380): −60.5%
  Avg(S6 Ribo Prot S235 236): −44.68%
  Avg(S6 Ribo Prot S240 244): −25.67%
  Avg(Tuberin TSC2 Y1571): 0.66%
  Avg(p70 S6 Kinase S371 S394): −35.94%
  Avg(p70 S6 Kinase T389 T412): −24.58%
MIAPaCa-2
  Avg (4ebp1 T70): −9.42%
  Avg (Akt S473): 9.9%
  Avg (Akt): 23.63%
  Avg (Bad S136): −4.12%
  Avg (Bad S155): −5.65%
  Avg (Bak): −15.15%
  Avg (Bax): 23.44%
  Avg (Bcl 2): 5.86%
  Avg (Bcl2 S70): 0.89%
  Avg (Bcl 2 T56): −1.78%
  Avg (Bim): −12.51%
  Avg (CREB S133): −19.26%
  Avg (Caspase 3 CL D175): 22.35%
  Avg (Caspase 7 Cl D198): −6.44%
  Avg (Chk1): −3.51%
  Avg (Chk1 S345): 1.2%
  Avg (Cyclin D1): −37.9%
  Avg (ERK 1 2): −40.33%
  Avg (ERK 1 2 T202 Y204): 209.14%
  Avg (MAK1 S360): −10.72%
  Avg (Mcl1): −7.27%
  Avg (Raptor S792): 5.95%
  Avg (Raptor): 21.15%
  Avg (Stat1): 8.62%
  Avg (Stat3): −1.23%
  Avg (bad S112): −30.29%
  Avg (c Fos): −18.44%
  Avg (c Myc): −8.77%
  Avg (mTOR S2448): −11.73%
  Avg (mTOR S2481): −0.24%
  Avg (mTOR): −3.27%
  Avg (p70 S6 Kinase): −3.59%
  Avg (p90 RSK S380): −35%
  Avg(S6 Ribo Prot S235 236): −79.46%
  Avg(S6 Ribo Prot S240 244): −88.03%
  Avg(Tuberin TSC2 Y1571): 1.7%
  Avg(p70 S6 Kinase S371 S394): −28.27%
  Avg(p70 S6 Kinase T389 T412): −39.23%
HCT116
  Avg (4ebp1 T70): 4.03%
  Avg (Akt S473): −6.14%
  Avg (Akt): 4.41%
  Avg (Bad S136): −11.49%
  Avg (Bad S155): −30.72%
  Avg (Bak): −13.16%
  Avg (Bax): −0.8%
  Avg (Bcl 2): −3.59%
  Avg (Bcl2 S70): −8.23%
  Avg (Bcl 2 T56): −8.36%
  Avg (Bim): 12.44%
  Avg (CREB S133): −30.64%
  Avg (Caspase 3 CL D175): −10.11%
  Avg (Caspase 7 Cl D198): −21.09%
  Avg (Chk1): −11.26%
  Avg (Chk1 S345): −39.65%
  Avg (Cyclin D1): −69.62%
  Avg (ERK 1 2): −29.42%
  Avg (ERK 1 2 T202 Y204): 849.12%
  Avg (MAK1 S360): −13.45%
  Avg (Mcl1): −8.72%
  Avg (Raptor S792): −22.04%
  Avg (Raptor): −7.06%
  Avg (Rictor): −13.05%
  Avg (Stat1): −13.76%
  Avg (Stat3): −5.52%
  Avg (bad S112): −34.27%
  Avg (c Fos): −14.08%
  Avg (c Myc): −11.15%
  Avg (mTOR S2448): −12.78%
  Avg (mTOR S2481): −34.09%
  Avg (mTOR): −11.96%
  Avg (p70 S6 Kinase): −12.86%
  Avg (p90 RSK S380): −31.81%
  Avg(S6 Ribo Prot S235 236): −96.31%
  Avg(S6 Ribo Prot S240 244): −96.26%
  Avg(Tuberin TSC2 Y1571): −29.89%
  Avg(p70 S6 Kinase S371 S394): −16.9%
  Avg(p70 S6 Kinase T389 T412): −28.11%

From patent US20210038587A1, “METHODS AND COMPOSITIONS FOR TREATING NON-ERK MAPK PATHWAY INHIBITOR-RESISTANT CANCERS” (BIOMED VALLEY DISCOVERIES, INC., priority 2013, published 2021)
